Columns and labels:
Assay type in all cases: cell-based
Bcl-xL = molecular target: T1, Bcl-xL (Homo sapiens, UniProt Q07817); experiment: HCT116 Bcl-xL degradation, capillary-based immunoassay (WES); details: for remaining activity at 0.01 µM / remaining activity at 0.1 µM: HCT-116, 24 h, % of untreated cells; for remaining activity at 0.01 µM: HCT116, 10 nM; for remaining activity at 0.1 µM: HCT116, 100 nM; for DC50: HCT116, 24 h, 9-point serial dilution
T1 construct: Measured levels of Bcl-xL protein of HCT116 cells treated with the tested compounds; host or cells: HCT116
Procedure, shortened: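 Bcl-xL protein level by capillary WES immunoassay in HCT116 lysates, as % of untreated after cofilin normalization. Compound exposure was 24 h at 10 and 100 nM and/or a 9-point series, in quadruplicate. Four-parameter fitting gave the DC50.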

MOLT-4 cells [1] = experiment: MOLT-4 cell viability, CTG assay; details: Homo sapiens, MOLT-4, 48 h
Procedure, shortened: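 Viability read as total ATP luminescence (CTG) after 48 h compound treatment, 11 points at 5-fold spacing in triplicate, cells in RPMI 1640/10% FBS. IC50 is the concentration halving signal relative to control, four-parameter fit, averaged over at least 2 experiments.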

MOLT-4 cells [2] = experiment: MOLT-4 cell viability, MTT assay; details: Homo sapiens, MOLT-4, 48 h
Description: The MTT colorimetric assay is based on the mitochondrial reduction of tetrazolium salt by living cells. The viable cell number is proportional to the production of formazan salts, which can be read spectrophotometrically at 540 nm. The CTG luminescent assay (CellTiter GLO, Promega) is based on a reagent which lyses cells and measures total adenosine triphosphate (ATP) content. The viable cell number is proportional to the production of ATP.
MOLT-4 cells were purchased from ATCC and cultivated in RPMI 1640 supplemented with 10% heat inactivated fetal bovine serum, penicillin (100 IU/mi), streptomycin (100 μg/ml) and L-glutamine (2 mM). Cells were cultured at 37° C. in a humidified atmosphere containing 5% […].
For MTT assay, cells were seeded in 96 microwell plates (150 μL per well) and exposed to the compounds for 48 h (3.16 fold serially diluted; 9 concentrations each, triplicates). At the end of incubation time, 15 μL of MTT solution (5 mg/ml) were added per well and the cells were incubated for another 4 h. Then, 100 μL of 10% Sodium Dodecyl Sulfate (SDS)/HCl 10 mM were added per well and the plate was incubated overnight, before measurement of optical density at 540 nm.
IC50, were calculated using standard four-parametric curve fitting. IC50 is defined as the compound concentration at which the MTT or CTG signal is reduced to 50% of that measured for the control. Results shown in Table 14 represent the mean of at least 2 independent experiments.

T1 sequence (Q07817 whole entry): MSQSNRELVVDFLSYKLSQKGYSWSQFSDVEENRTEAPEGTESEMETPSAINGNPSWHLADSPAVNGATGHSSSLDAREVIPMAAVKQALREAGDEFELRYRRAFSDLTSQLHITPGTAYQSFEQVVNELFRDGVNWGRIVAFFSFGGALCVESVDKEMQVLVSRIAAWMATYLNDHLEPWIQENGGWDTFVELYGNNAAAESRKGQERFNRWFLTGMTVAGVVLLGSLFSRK

Structure (SMILES) | remaining activity at 0.01 µM (Bcl-xL) [%] | remaining activity at 0.1 µM (Bcl-xL) [%] | IC50 (MOLT-4 cells [1]) [nM] | IC50 (MOLT-4 cells [2]) [nM] | DC50 (Bcl-xL) [nM]
Cc1ncsc1-c1ccc(CNC(=O)[C@@H]2C[C@@H](O)CN2C(=O)[C@@H](NC(=O)CCC(=O)N2CCN(CC#Cc3ccc(OCCCc4sc(N5CCCc6c5nnc(Nc5nc7ccccc7s5)c6C)nc4C(=O)O)c(F)c3)CC2)C(C)(C)C)cc1 [Example 21, 2-[3-(1,3-benzothiazol-2-ylamino)-4-methyl-6,7-dihydro-5H-pyrido[2,3-c]pyridazin-8-yl]-5-[3-[2-fluoro-4-[3-[4-[4-[[(1S)-1-[(2S,4R)-4-hydroxy-2-[[4-(4-methylthiazol-5-yl)phenyl]methylcarbamoyl]pyrrolidine-1-carbonyl]-2,2-dimethyl-propyl]amino]-4-oxo-butanoyl]piperazin-1-yl]prop-1-ynyl]phenoxy]propyl]thiazole-4-carboxylic acid] | 73 | 35 | 23.6 | 11.5 | 
Cc1c(Nc2nc3ccccc3s2)nnc2c1CCCN2c1ccc(-c2cnn(CC34CC5(C)CC(C)(C3)CC(OCCN(C)CCOCCOCCNc3cccc6c3C(=O)N(C3CCC(=O)NC3=O)C6=O)(C5)C4)c2C)c(C(=O)O)n1 (stereo not shown) [Example 12, 6-[3-(1,3-benzothiazol-2-ylamino)-4-methyl-6,7-dihydro-5H-pyrido[2,3-c]pyridazin-8-yl]-3-[1-[[3-[2-[2-[2-[2-[[2-(2,6-dioxo-3-piperidyl)-1,3-dioxo-isoindolin-4-yl]amino]ethoxy]ethoxy]ethyl-methyl-amino]ethoxy]-5,7-dimethyl-1-adamantyl]methyl]-5-methyl-pyrazol-4-yl]pyridine-2-carboxylic acid] | 69 | 69 | 19.9 | 9.49 | 
Cc1cc(N(CCCCCn2cc(COCCOCCNC(=O)COc3cccc4c3C(=O)N(C3CCC(=O)NC3=O)C4=O)nn2)c2ccc(-c3cnn(CC45CC6(C)CC(C)(C4)CC(OCCN(C)C)(C6)C5)c3C)c(C(=O)O)n2)nnc1Nc1nc2ccccc2s1 (stereo not shown) [Example 65, 6-[[6-(1,3-benzothiazol-2-ylamino)-5-methyl-pyridazin-3-yl]-[5-[4-[2-[2-[[2-[2-(2,6-dioxo-3-piperidyl)-1,3-dioxo-isoindolin-4-yl]oxyacetyl]amino]ethoxy]ethoxymethyl]triazol-1-yl]pentyl]amino]-3-[1-[[3-[2-(dimethylamino)ethoxy]-5,7-dimethyl-1-adamantyl]methyl]-5-methyl-pyrazol-4-yl]pyridine-2-carboxylic acid] | 90 | 78 | 140 | 156 | 
Cc1ncsc1-c1ccc([C@H](C)NC(=O)C2C[C@@H](O)CN2C(=O)C(NC(=O)CCCCCN(C)CCOC23CC4(C)CC(C)(CC(Cn5ncc(-c6ccc(N7CCCc8c7nnc(Nc7nc9ccccc9s7)c8C)nc6C(=O)O)c5C)(C4)C2)C3)C(C)(C)C)cc1 (stereo in doubt) [Example 8, 6-[3-(1,3-benzothiazol-2-ylamino)-4-methyl-6,7-dihydro-5H-pyrido[2,3-c]pyridazin-8-yl]-3-[1-[[3-[2-[[6-[[(1S)-1-[(2S,4R)-4-hydroxy-2-[[(1S)-1-[4-(4-methylthiazol-5-yl)phenyl]ethyl]carbamoyl]pyrrolidine-1-carbonyl]-2,2-dimethyl-propyl]amino]-6-oxo-hexyl]-methyl-amino]ethoxy]-5,7-dimethyl-1-adamantyl]methyl]-5-methyl-pyrazol-4-yl]pyridine-2-carboxylic acid] | 54 | 37 | 34.3 | 6.56 | 
Cc1cc(N(CCCCCn2cc(COCCOCCOCCNc3cccc4c3C(=O)N(C3CCC(=O)NC3=O)C4=O)nn2)c2ccc(-c3cnn(C[C@@]45C[C@]6(C)C[C@](C)(C4)C[C@](OCCN(C)C)(C6)C5)c3C)c(C(=O)O)n2)nnc1Nc1nc2ccccc2s1 (stereo partly shown) [Example 62, 6-[[6-(1,3-benzothiazol-2-ylamino)-5-methyl-pyridazin-3-yl]-[5-[4-[2-[2-[2-[[2-(2,6-dioxo-3-piperidyl)-1,3-dioxo-isoindolin-4-yl]amino]ethoxy]ethoxy]ethoxymethyl]triazol-1-yl]pentyl]amino]-3-[1-[[3-[2-(dimethylamino)ethoxy]-5,7-dimethyl-1-adamantyl]methyl]-5-methyl-pyrazol-4-yl]pyridine-2-carboxylic acid] | 47 | 7 |  | 24.1 | 13.6
CNCC#Cc1ccc(OCCCc2sc(N(CCCc3cn(CCOCCOCCOCCNC(=O)COc4cccc5c4C(=O)N(C4CCC(=O)NC4=O)C5=O)nn3)c3cc(C)c(Nc4nc5ccccc5s4)nn3)nc2C(=O)O)c(F)c1 (stereo not shown) [Example 27, 2-[[6-(1,3-benzothiazol-2-ylamino)-5-methyl-pyridazin-3-yl]-[3-[1-[2-[2-[2-[2-[[2-[2-(2,6-dioxo-3-piperidyl)-1,3-dioxo-isoindolin-4-yl]oxyacetyl]amino]ethoxy]ethoxy]ethoxy]ethyl]triazol-4-yl]propyl]amino]-5-[3-[2-fluoro-4-[3-(methylamino)prop-1-ynyl]phenoxy]propyl]thiazole-4-carboxylic acid] | 60 | 49 |  | 669 | 
Cc1c(Nc2nc3ccccc3s2)nnc2c1CCCN2c1ccc(-c2cnn(CC34CC5(C)CC(C)(C3)CC(OCCN(C)CCCCCCCCCCCCOc3ccc6c(c3)C(=O)N(C3CCC(=O)NC3=O)C6=O)(C5)C4)c2C)c(C(=O)O)n1 (stereo not shown) [Example 140, 6-[3-(1,3-benzothiazol-2-ylamino)-4-methyl-6,7-dihydro-5H-pyrido[2,3-c]pyridazin-8-yl]-3-[1-[[3-[2-[12-[2-(2,6-dioxo-3-piperidyl)-1,3-dioxo-isoindolin-5-yl]oxydodecyl-methyl-amino]ethoxy]-5,7-dimethyl-1-adamantyl]methyl]-5-methyl-pyrazol-4-yl]pyridine-2-carboxylic acid] |  |  |  | 0.311 | 3.08
Cc1ncsc1-c1ccc(CNC(=O)[C@@H]2C[C@@H](O)CN2C(=O)[C@@H](NC(=O)CCCC(=O)N2CCN(CC#Cc3ccc(OCCCc4sc(N5CCCc6c5nnc(Nc5nc7ccccc7s5)c6C)nc4C(=O)O)c(F)c3)CC2)C(C)(C)C)cc1 [Example 18, 2-[3-(1,3-benzothiazol-2-ylamino)-4-methyl-6,7-dihydro-5H-pyrido[2,3-c]pyridazin-8-yl]-5-[3-[2-fluoro-4-[3-[4-[5-[[(1S)-1-[(2S,4R)-4-hydroxy-2-[[4-(4-methylthiazol-5-yl)phenyl]methylcarbamoyl]pyrrolidine-1-carbonyl]-2,2-dimethyl-propyl]amino]-5-oxo-pentanoyl]piperazin-1-yl]prop-1-ynyl]phenoxy]propyl] thiazole-4-carboxylic acid] | 52 | 52 |  | 2.72 | 6.6
Cc1ncsc1-c1ccc(CNC(=O)[C@@H]2C[C@@H](O)CN2C(=O)[C@@H](NC(=O)CCCCCCC(=O)N2CCN(CC#Cc3ccc(OCCCc4sc(N5CCCc6c5nnc(Nc5nc7ccccc7s5)c6C)nc4C(=O)O)c(F)c3)CC2)C(C)(C)C)cc1 [Example 20, 2-[3-(1,3-benzothiazol-2-ylamino)-4-methyl-6,7-dihydro-5H-pyrido[2,3-c]pyridazin-8-yl]-5-[3-[2-fluoro-4-[3-[4-[8-[[(1S)-1-[(2S,4R)-4-hydroxy-2-[[4-(4-methylthiazol-5-yl)phenyl]methylcarbamoyl]pyrrolidine-1-carbonyl]-2,2-dimethyl-propyl]amino]-8-oxo-octanoyl]piperazin-1-yl]prop-1-ynyl]phenoxy]propyl]thiazole-4-carboxylic acid] | 51 | 31 |  | 4.49 | 
Cc1cc(N(CCCCCn2cc(CCCCCCCNc3cccc4c3C(=O)N(C3CCC(=O)NC3=O)C4=O)nn2)c2ccc(-c3cnn(CC45CC6(C)CC(C)(C4)CC(OCCN(C)C)(C6)C5)c3C)c(C(=O)O)n2)nnc1Nc1nc2ccccc2s1 (stereo not shown) [Example 150, 6-[[6-(1,3-benzothiazol-2-ylamino)-5-methyl-pyridazin-3-yl]-[5-[4-[7-[[2-(2,6-dioxo-3-piperidyl)-1,3-dioxo-isoindolin-4-yl]amino]heptyl]triazol-1-yl]pentyl]amino]-3-[1-[[3-[2-(dimethylamino)ethoxy]-5,7-dimethyl-1-adamantyl]methyl]-5-methyl-pyrazol-4-yl]pyridine-2-carboxylic acid] |  |  |  | 19.3 | 14.5

Reference: US20240376094A2, “SELECTIVE BCL-XL PROTAC COMPOUNDS AND METHODS OF USE” (Les Laboratoires Servier, priority 2021, published 2024)
